Target: Cytochrome P450 2C9 (Homo sapiens, UniProt P11712)
Experiment: In Vitro CYP Inhibition Assay
Conditions: 37 °C

Chain of Cytochrome P450 2C9 (P11712 whole entry): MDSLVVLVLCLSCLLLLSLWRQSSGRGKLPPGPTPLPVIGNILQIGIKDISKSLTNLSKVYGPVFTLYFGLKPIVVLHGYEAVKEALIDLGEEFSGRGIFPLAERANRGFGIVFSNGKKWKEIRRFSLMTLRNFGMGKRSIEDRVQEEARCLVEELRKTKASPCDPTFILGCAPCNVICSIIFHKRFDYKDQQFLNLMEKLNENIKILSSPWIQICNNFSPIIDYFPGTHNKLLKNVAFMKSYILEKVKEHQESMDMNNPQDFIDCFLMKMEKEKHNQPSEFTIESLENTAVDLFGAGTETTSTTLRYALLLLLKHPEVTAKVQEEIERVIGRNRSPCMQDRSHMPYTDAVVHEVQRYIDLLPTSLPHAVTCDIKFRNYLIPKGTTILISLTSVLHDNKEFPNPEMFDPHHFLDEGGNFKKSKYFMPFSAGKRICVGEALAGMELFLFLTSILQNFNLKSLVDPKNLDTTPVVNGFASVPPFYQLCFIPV

C[C@](O)(COc1ccc(Cl)c(F)c1)C(=O)Nc1ccc(C#N)c(C(F)(F)F)c1 [US9278914, S-II]
IC50: > 20 µM
